According to patent publication US8969336B2, “Diamino heterocyclic carboxamide compound” (Astellas Pharma Inc., priority 2009, dated 2015):

Assays:
RET protein = RET protein (Homo sapiens (Human), UniProt P07949); assay: Inhibitory activity against the kinase activity of RET protein; assay type: biochemical; settings: RET kinase domain, ATP 100 μM, reaction 30 minutes
ROS protein = ROS protein (Homo sapiens (Human), UniProt P08922); assay: Inhibitory activity against the kinase activity of ROS protein; assay type: biochemical; settings: ROS kinase domain, ATP 50 uM
Sequence of ROS protein (P08922 1945-2222): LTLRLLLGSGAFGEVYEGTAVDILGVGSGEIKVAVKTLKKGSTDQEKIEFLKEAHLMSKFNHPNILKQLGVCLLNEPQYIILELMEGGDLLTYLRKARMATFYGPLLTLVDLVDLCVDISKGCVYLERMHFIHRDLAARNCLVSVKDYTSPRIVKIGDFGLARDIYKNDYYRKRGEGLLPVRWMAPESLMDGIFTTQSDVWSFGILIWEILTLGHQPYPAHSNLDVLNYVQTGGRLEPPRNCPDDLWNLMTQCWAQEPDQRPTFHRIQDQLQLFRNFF

[1] = target: EML4-ALK fusion protein v1 (Homo sapiens (Human), UniProt Q9UM73); assay: Inhibitory activity against the kinase activity of EML4-ALK fusion protein (HTRF KinEASE-TK); assay type: biochemical; settings: ATP 100 μM, reaction 1 hour
Sequence of EML4-ALK fusion protein v1 (Q9UM73 other isoform, or with tags, fused parts or gaps): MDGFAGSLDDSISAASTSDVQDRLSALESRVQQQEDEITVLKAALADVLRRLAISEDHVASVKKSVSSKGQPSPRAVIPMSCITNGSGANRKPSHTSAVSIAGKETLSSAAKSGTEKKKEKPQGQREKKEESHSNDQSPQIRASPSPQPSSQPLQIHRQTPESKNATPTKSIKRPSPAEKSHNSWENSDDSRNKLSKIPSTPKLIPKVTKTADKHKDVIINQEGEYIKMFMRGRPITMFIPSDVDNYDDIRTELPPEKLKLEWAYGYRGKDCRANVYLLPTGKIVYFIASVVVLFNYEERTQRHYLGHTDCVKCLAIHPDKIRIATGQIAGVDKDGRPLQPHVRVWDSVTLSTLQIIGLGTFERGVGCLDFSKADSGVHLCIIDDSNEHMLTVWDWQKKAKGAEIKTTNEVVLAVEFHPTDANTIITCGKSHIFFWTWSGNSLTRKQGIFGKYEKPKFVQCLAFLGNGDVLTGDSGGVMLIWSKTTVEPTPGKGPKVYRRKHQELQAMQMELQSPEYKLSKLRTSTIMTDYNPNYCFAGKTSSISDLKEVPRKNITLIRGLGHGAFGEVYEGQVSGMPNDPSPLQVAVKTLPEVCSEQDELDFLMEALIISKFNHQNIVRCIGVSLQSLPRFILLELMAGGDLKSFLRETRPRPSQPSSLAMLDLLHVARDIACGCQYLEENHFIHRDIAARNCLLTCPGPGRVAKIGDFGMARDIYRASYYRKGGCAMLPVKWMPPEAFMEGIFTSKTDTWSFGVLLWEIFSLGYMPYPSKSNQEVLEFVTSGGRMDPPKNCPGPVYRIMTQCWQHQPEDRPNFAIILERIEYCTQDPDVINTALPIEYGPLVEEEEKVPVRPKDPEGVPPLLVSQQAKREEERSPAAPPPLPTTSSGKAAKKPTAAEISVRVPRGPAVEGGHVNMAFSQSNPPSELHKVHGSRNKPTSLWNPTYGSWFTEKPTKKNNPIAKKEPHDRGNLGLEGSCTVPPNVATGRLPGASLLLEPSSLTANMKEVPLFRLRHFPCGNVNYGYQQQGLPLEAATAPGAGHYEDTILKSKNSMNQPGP
Description: A recombinant retrovirus was created from expression plasmid FLAG-EML4-ALKv1/pMX-iresCD8 in which cDNA for EML4-ALK fusion protein v1 was integrated, and injected into mouse lymphoid cell line BA/F3 cells. Using a magnetic bead reagent for cell separation and a purification column (anti-CD8 monoclonal antibody immobilized on magnetic beads and a MiniMACS purification column; both are products of Miltenyi Biotec Inc.), cell surface CD8-expressing cells were purified to establish EML4-ALK fusion protein v1-expressing BA/F3 cells. From the cells, EML4-ALK fusion protein v1 was purified and subjected to kinase activity evaluation. EML4-ALK fusion protein v1 was investigated for its phosphorylation activity toward a peptide substrate by using a kinase activity detection kit (HTRF KinEASE-TK; Cisbio Inc.). […] The ATP concentration used was 100 μM.

[2] = tested on: BA/F3 cells expressing EML4-ALK fusion protein v1; assay: Growth inhibitory activity against EML4-ALK fusion protein-dependent cells; assay type: cell-based, mouse; settings: Mus musculus, BaF3, 48 h, growth of EML4-ALK fusion protein v1-expressing BA/F3 cells, cultured 2 days
Description: EML4-ALK fusion protein v1-expressing BA/F3 cells can grow in the absence of IL-3. In other words, they are cells that EML4-ALK fusion protein v1-dependently grow.
In a 96-well plate (Iwaki), BA/F3 cells expressing EML4-ALK fusion protein v1 were seeded at 500 cells per well in RPMI1640 medium (Invitrogen) containing 10% fetal bovine serum, followed by addition of a test compound (final concentration: 10 μM to 0.1 nM). As a negative control, DMSO used as a solvent of the test compound was added. Then, the cells were cultured under 5% CO2 at 37° C. for 2 days. A cell counting reagent (AlmarBlue; Biosource) was added, and the cells were cultured for 150 minutes, followed by measurement of fluorescence intensity with a […] (Safire; Tecan) in accordance with instructions attached to the reagent.

[3] = tested on: EML4-ALK fusion protein v1 expressing 3T3 cells; assay: Antitumor test (in vivo) on EML4-ALK fusion protein v1 expressing 3T3 cells; settings: oral 10 mg/kg once a day for 5 days, Balb/c nude mice, EML4-ALK v1 3T3 tumor; values marked (regression)
Description: Expression plasmid EML4-ALKv1/pMXS in which cDNA for EML4-ALK fusion protein v1 was integrated was trasfected into 3T3 fibroblast cells by the phosphate calcium method to thereby establish EML4-ALK fusion protein v1 expressing 3T3 cells. 3×10^6 cells of EML4-ALK fusion protein v1 expressing 3T3 cells suspended in PBS were inoculated subcutaneously by injection to the back of 5 weeks old male Balb/c nude mice (Charles River Japan, Inc.). After 7 days of the inoculation, the administration of test compound was initiated. The test was conducted in the solvent group and the compound group, 4 animals per group. The test compound was suspended in a solvent composed of 0.5% methylcellulose and administered orally at a dose of 10 mg/kg. Administrations were performed once a day for 5 days, and body weight and tumor size were measured every other day. Tumor volume was calculated using the following formula. [Tumor volume(mm^3)]=[Tumor major axis(mm)]×[tumor minor axis(mm)]^2×0.5
When regression of tumor volume is induced from the day of starting administration, the tumor volume on the day of starting administration and the state in which the tumor disappeared were assumed to be 0% regression and 100% regression, respectively, and the rate of regression of the test compound was calculated.

[4] = tested on: human non-small cell lung cancers cell line NCI-H2228 cells; assay: Antitumor test (in vivo) on NCI-H2228 cells; settings: NOD/SCID mice
Description: The antitumor effects on EML4-ALK fusion protein-dependent cells can also be confirmed by use of human non-small cell lung cancers cell line NCI-H2228 cells (cells derived from EML4-ALK fusion polynucleotide-positive lung cancer patients (EML4-ALK fusion protein v3-dependent cells)) in place of the EML4-ALK fusion protein v1 expressing 3T3 cells of Test Example 3, as shown below.
3×10^6 cells of NCI-H2228 cells suspended in 50% Matrigel (Invitrogen) were inoculated subcutaneously by injection to the back of 5 weeks old male NOD/SCID mice (Charles River Japan, Inc.). After 3 weeks of the inoculation, the administration of test compounds was initiated. The test was conducted in the solvent group and test compound groups, 6 animals per group. The test compounds were each dissolved in a solvent composed of 10% 1-methyl-2-pyrrolidinone (SIGMA-ALDRICH Inc.)/90% polyethylene glycol 300 (Fluka Inc.) and administered orally at a dose of 1 mg/kg. Administrations were performed once a day for 14 days, and body weight and tumor size were measured every other day. Tumor volume was calculated using the following formula. [Tumor volume(mm^3)]=[Tumor major axis(mm)]×[tumor minor axis(mm)]^2×0.5

Sequence of RET protein (P07949 724-1016): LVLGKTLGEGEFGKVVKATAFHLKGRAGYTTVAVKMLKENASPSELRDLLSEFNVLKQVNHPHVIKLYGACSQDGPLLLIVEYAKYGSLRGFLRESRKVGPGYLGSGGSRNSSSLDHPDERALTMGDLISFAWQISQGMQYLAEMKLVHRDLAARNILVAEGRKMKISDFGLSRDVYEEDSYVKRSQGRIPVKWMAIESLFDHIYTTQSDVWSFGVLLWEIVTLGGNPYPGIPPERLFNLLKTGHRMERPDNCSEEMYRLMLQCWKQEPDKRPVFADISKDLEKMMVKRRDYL

| IC50 (RET protein) [nM] | IC50 (ROS protein) [nM] | Structure (SMILES) | IC50 [1] [nM] | IC50 [2] [nM] | rate of regression (tumor volume) [3] | inhibition rate of growth of tumor of NCI-H2228 cells ([4]; oral 1 mg/kg once a day for 14 days) [%] | growth inhibition against NCI-H2228 cells (tumor) compared with the solvent group ([4]; oral administration, Student's t-test) |
| --- | --- | --- | --- | --- | --- | --- | --- |
| 3.4 | 1.9 | CCc1nc(C(N)=O)c(Nc2ccc(N3CCC(N4CCN(C)CC4)CC3)c(OC)c2)nc1NC1CCOCC1 [Example 577] |  |  |  |  |  |
|  |  | CC(C)c1nc(C(N)=O)c(Nc2ccc(N3CCC(N4CCN(C)CC4)CC3)cc2)nc1NC1CCOCC1 [Example 549] | 2.1 | 14 | 67 (regression) % | 69 |  |
|  |  | NC(=O)c1cnc(N[C@@H]2CCCC[C@@H]2N)nc1Nc1ccc(-c2ccc(N3CCOCC3)cc2)cc1 (racemic) [Compound X, rac-2-{[(1R,2S)-2-aminocyclohexyl]amino}-4-{[4′-(morpholin-4-yl)biphenyl-4-yl]amino}pyrimidine-5-carboxamide, reference compound] | 220 | 821 |  |  | no significant growth inhibition |
